Experimental data: PubChem BioAssay AID248 (DTP/NCI, 2004)
Several values for one entry are separate records, joined by “and”; a condition that tells them apart may be missing. Equal entries are not always repeated. Toxic doses and inconclusive results are not listed. Rule as the data show it: active = T/C of 150% or more; inactive = T/C below 125%.

Test system: L1210 leukemia ip in BDF1 mice, survival T/C
Test: NCI In Vivo Anticancer Drug Screen. Data for tumor model L1210 Leukemia (intraperitoneal) in B6D2F1 (BDF1) mice
Conditions: endpoint: mean survival time, higher = longer survival
How it was run: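 Tumor was transplanted into mice, which were then dosed with test compound or vehicle alone. Survival was recorded for each group, and the treated figure was expressed relative to the control figure.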

[1] = dose: 100.0 mg/kg/injection, schedule: Q04DX002 (ip), vehicle: saline with Tween-80
[2] = dose: 200.0 mg/kg/injection, schedule: Q04DX002 (ip), vehicle: saline with Tween-80
[3] = dose: 400.0 mg/kg/injection, schedule: Q04DX002 (ip), vehicle: saline with Tween-80
[4] = dose: 100.0 mg/kg/injection, schedule: Q01DX001 (ip), vehicle: saline
[5] = dose: 200.0 mg/kg/injection, schedule: Q01DX001 (ip), vehicle: saline
[6] = dose: 400.0 mg/kg/injection, schedule: Q01DX001 (ip), vehicle: saline
[7] = dose: 5.0 mg/kg/injection, schedule: Q01DX001 (ip), vehicle: saline
[8] = dose: 10.0 mg/kg/injection, schedule: Q01DX001 (ip), vehicle: saline
[9] = dose: 20.0 mg/kg/injection, schedule: Q01DX001 (ip), vehicle: saline
[10] = dose: 40.0 mg/kg/injection, schedule: Q01DX001 (ip), vehicle: saline

Measured: T/C

Cc1c(Cl)cccc1NC(=S)NC(=O)c1ccccc1
inactive: [1] 110 % of control | [2] 100 % of control | [3] 89 % of control

CCCC(C(CC)CNC(=O)Nc1cccc2ccccc12)N(C)C(=O)Nc1cccc2ccccc12 (stereo unspecified)
inactive: dose: 50.0 mg/kg/injection, schedule: Q01DX001 (ip), vehicle: carboxymethylcellulose (CMC) 109 % of control | dose: 100.0 mg/kg/injection, schedule: Q01DX001 (ip), vehicle: carboxymethylcellulose (CMC) 102 % of control | dose: 200.0 mg/kg/injection, schedule: Q01DX001 (ip), vehicle: carboxymethylcellulose (CMC) 103 % of control | dose: 400.0 mg/kg/injection, schedule: Q01DX001 (ip), vehicle: carboxymethylcellulose (CMC) 96 % of control

NC(=O)N/N=C1\CCCC(CCC(=O)O)C1 (stereo unspecified)
inactive: dose: 75.0 mg/kg/injection, schedule: Q01DX009 (ip), vehicle: other 101 % of control | [4] 89 % of control | dose: 150.0 mg/kg/injection, schedule: Q01DX009 (ip), vehicle: other 93 % of control | [5] 108 % of control | dose: 300.0 mg/kg/injection, schedule: Q01DX009 (ip), vehicle: other 94 % of control | [6] 100 % of control

C=C[N+](C)(C)C
inactive: [7] 100 % of control | [8] 107 % of control | [9] 103 % of control | [10] 103 % of control

COc1ccc(OC)c(/C=C/C(=O)c2ccc(Cl)cc2)c1
inactive: dose: 100.0 mg/kg/injection, schedule: Q04DX003 (ip), vehicle: Klucel (hydroxypropylcellulose) (HPC) 94 % of control | dose: 200.0 mg/kg/injection, schedule: Q04DX003 (ip), vehicle: Klucel (hydroxypropylcellulose) (HPC) 94 % of control | dose: 400.0 mg/kg/injection, schedule: Q04DX003 (ip), vehicle: Klucel (hydroxypropylcellulose) (HPC) 97 % of control

c1ccc(Cc2[nH]c3ccccc3c2-c2ccccc2)cc1
inactive: dose: 100.0 mg/kg/injection, schedule: Q01DX009 (ip), vehicle: saline with Tween-80 93 % of control | [1] 109 % of control | dose: 200.0 mg/kg/injection, schedule: Q01DX009 (ip), vehicle: saline with Tween-80 87 % of control | [2] 100 % of control | [3] 90 % of control

NC(N)=NCCCC(N)C(=O)O (stereo unspecified)
inactive: dose: 25.0 mg/kg/injection, schedule: Q04DX002 (ip), vehicle: saline 97 % of control | dose: 50.0 mg/kg/injection, schedule: Q04DX002 (ip), vehicle: saline 113 % of control | [4] 97 % of control | dose: 100.0 mg/kg/injection, schedule: Q01DX009 (ip), vehicle: saline 119 % of control | dose: 100.0 mg/kg/injection, schedule: Q04DX002 (ip), vehicle: saline 103 % of control and 97 % of control | dose: 100.0 mg/kg/injection, schedule: Q04DX003 (ip), vehicle: saline 102 % of control and 94 % of control | [5] 100 % of control | dose: 200.0 mg/kg/injection, schedule: Q01DX009 (ip), vehicle: saline 95 % of control | dose: 200.0 mg/kg/injection, schedule: Q04DX002 (ip), vehicle: saline 94 % of control | dose: 200.0 mg/kg/injection, schedule: Q04DX003 (ip), vehicle: saline 105 % of control and 90 % of control | [6] 103 % of control | dose: 400.0 mg/kg/injection, schedule: Q01DX009 (ip), vehicle: saline 97 % of control | dose: 400.0 mg/kg/injection, schedule: Q04DX002 (ip), vehicle: saline 94 % of control | dose: 400.0 mg/kg/injection, schedule: Q04DX003 (ip), vehicle: saline 109 % of control and 97 % of control

C[N+](C)(C)c1ccc(/C=N\O)cc1
inactive: dose: 6.25 mg/kg/injection, schedule: Q04DX003 (ip), vehicle: saline 95 % of control | dose: 12.5 mg/kg/injection, schedule: Q04DX003 (ip), vehicle: saline 102 % of control

C/C=C(/Cl)C(=O)O
inactive: [7] 100 % of control | [8] 97 % of control | [9] 97 % of control | [10] 103 % of control | dose: 80.0 mg/kg/injection, schedule: Q01DX001 (ip), vehicle: saline 103 % of control
